Paper PMC5622171 (Nature Communications, 2017)

Assays:
Assay in all cases: KINOMEscan kinase profiling
Type in all cases: binding
[1] = target: T1, PDGFRB (Homo sapiens, UniProt P09619); conditions: read-out: %Inhibition by 10 μM SPA70
T1 construct: purchased DiscoverX (Ambit Biosciences) KINOMEscan
Method in brief: (§1)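 KINOMEscan profiling followed a published protocol. Kinases whose inhibition exceeded a set cut-off were then tested in a dilution series beginning at 30 µM.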

[2] = target: T2, IKK-epsilon (Homo sapiens, UniProt Q14164); conditions: read-out: %Inhibition by 10 μM SPA70
T2 construct: purchased DiscoverX (Ambit Biosciences) KINOMEscan
Method in brief: as §1

[3] = target: T3, GSK3B (Homo sapiens, UniProt P49841)
T3 construct: purchased DiscoverX (Ambit Biosciences) KINOMEscan
T3 sequence (P49841 whole entry): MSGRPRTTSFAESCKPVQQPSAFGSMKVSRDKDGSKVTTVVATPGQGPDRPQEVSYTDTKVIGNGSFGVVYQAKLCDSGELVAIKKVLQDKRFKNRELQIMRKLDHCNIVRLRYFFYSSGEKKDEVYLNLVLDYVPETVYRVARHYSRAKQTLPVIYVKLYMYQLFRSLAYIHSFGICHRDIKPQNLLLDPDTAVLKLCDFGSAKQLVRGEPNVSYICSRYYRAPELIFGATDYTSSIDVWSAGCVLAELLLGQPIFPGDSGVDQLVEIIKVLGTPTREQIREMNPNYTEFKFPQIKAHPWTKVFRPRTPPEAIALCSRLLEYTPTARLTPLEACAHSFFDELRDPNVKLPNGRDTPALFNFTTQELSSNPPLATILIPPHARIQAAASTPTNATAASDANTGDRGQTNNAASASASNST
Method in brief: as §1

[4] = target: T4, PRKCH (Homo sapiens, UniProt P24723); conditions: read-out: %Inhibition by 10 μM SPA70
T4 construct: purchased DiscoverX (Ambit Biosciences) KINOMEscan
T4 sequence (P24723 whole entry): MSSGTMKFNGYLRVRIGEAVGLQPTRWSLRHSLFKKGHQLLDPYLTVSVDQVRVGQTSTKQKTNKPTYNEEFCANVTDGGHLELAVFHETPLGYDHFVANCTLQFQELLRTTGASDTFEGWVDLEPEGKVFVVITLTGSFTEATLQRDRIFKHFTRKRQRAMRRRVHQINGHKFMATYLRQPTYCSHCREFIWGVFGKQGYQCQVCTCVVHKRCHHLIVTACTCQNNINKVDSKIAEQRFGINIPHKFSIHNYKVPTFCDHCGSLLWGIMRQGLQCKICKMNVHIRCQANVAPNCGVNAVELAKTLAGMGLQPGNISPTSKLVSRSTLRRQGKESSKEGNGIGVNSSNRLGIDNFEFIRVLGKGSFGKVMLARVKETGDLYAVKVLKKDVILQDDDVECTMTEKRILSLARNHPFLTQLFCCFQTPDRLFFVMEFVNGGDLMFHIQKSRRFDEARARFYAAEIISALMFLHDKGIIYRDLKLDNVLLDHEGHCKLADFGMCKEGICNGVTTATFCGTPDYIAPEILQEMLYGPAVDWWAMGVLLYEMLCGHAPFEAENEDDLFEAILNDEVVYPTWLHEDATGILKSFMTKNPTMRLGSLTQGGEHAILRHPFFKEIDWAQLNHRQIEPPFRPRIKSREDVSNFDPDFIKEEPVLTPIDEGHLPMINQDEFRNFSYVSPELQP
Method in brief: as §1

[5] = target: T5, FYN (Homo sapiens, UniProt P06241); conditions: read-out: %Inhibition by 10 μM SPA70
T5 construct: purchased DiscoverX (Ambit Biosciences) KINOMEscan
Method in brief: as §1

[6] = target: T6, DYRK1B (Homo sapiens, UniProt Q9Y463); conditions: read-out: %Inhibition by 10 μM SPA70
T6 construct: purchased DiscoverX (Ambit Biosciences) KINOMEscan
Method in brief: as §1

[7] = target: T7, PAK3 (Homo sapiens, UniProt O75914); conditions: read-out: %Inhibition by 10 μM SPA70
T7 construct: purchased DiscoverX (Ambit Biosciences) KINOMEscan
Method in brief: as §1

[8] = target: T8, EPHB3 (Homo sapiens, UniProt P54753); conditions: read-out: %Inhibition by 10 μM SPA70
T8 construct: purchased DiscoverX (Ambit Biosciences) KINOMEscan
Method in brief: as §1

[9] = target: T9, TGFBR1 (Homo sapiens, UniProt P36897); conditions: read-out: %Inhibition by 10 μM SPA70
T9 construct: purchased DiscoverX (Ambit Biosciences) KINOMEscan
Method in brief: as §1

[10] = target: T10, HIPK1 (Homo sapiens, UniProt Q86Z02); conditions: read-out: %Inhibition by 10 μM SPA70
T10 construct: purchased DiscoverX (Ambit Biosciences) KINOMEscan
Method in brief: as §1

[11] = target: T11, EPHB4 (Homo sapiens, UniProt P54760); conditions: read-out: %Inhibition by 10 μM SPA70
T11 construct: purchased DiscoverX (Ambit Biosciences) KINOMEscan
Method in brief: as §1

[12] = target: T12, TLK1 (Homo sapiens, UniProt Q9UKI8); conditions: read-out: %Inhibition by 10 μM SPA70
T12 construct: purchased DiscoverX (Ambit Biosciences) KINOMEscan
Method in brief: as §1

[13] = target: T13, DMPK (Homo sapiens, UniProt Q09013); conditions: read-out: %Inhibition by 10 μM SPA70
T13 construct: purchased DiscoverX (Ambit Biosciences) KINOMEscan
Method in brief: as §1

[14] = target: T14, MARK1 (Homo sapiens, UniProt Q9P0L2); conditions: read-out: %Inhibition by 10 μM SPA70
T14 construct: purchased DiscoverX (Ambit Biosciences) KINOMEscan
Method in brief: as §1

[15] = target: T15, AAK1 (Homo sapiens, UniProt Q2M2I8); conditions: read-out: %Inhibition by 10 μM SPA70
T15 construct: purchased DiscoverX (Ambit Biosciences) KINOMEscan
Method in brief: as §1

[16] = target: T16, TYK2(JH2domain-pseudokinase) (Homo sapiens, UniProt P29597)
T16 construct: TYK2(JH2domain-pseudokinase); purchased DiscoverX (Ambit Biosciences) KINOMEscan
T16 sequence (P29597 556-888 limits assumed): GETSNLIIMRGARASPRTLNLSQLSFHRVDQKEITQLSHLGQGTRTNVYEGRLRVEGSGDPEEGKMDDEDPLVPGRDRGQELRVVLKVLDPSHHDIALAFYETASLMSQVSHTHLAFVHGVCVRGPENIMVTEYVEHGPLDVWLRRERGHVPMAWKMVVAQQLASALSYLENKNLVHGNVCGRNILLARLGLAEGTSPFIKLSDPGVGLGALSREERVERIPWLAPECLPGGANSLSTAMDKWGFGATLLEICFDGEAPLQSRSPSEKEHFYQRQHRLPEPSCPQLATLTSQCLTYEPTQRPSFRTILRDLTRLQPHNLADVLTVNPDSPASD
Method in brief: as §1

[17] = target: T17, MYO3B (Homo sapiens, UniProt Q8WXR4); conditions: read-out: %Inhibition by 10 μM SPA70
T17 construct: purchased DiscoverX (Ambit Biosciences) KINOMEscan
Method in brief: as §1

[18] = target: T18, DDR1 (Homo sapiens, UniProt Q08345); conditions: read-out: %Inhibition by 10 μM SPA70
T18 construct: purchased DiscoverX (Ambit Biosciences) KINOMEscan
Method in brief: as §1

[19] = target: T19, GRK4 (Homo sapiens, UniProt P32298); conditions: read-out: %Inhibition by 10 μM SPA70
T19 construct: purchased DiscoverX (Ambit Biosciences) KINOMEscan
Method in brief: as §1

[20] = target: T20, AURKB (Homo sapiens, UniProt Q96GD4); conditions: read-out: %Inhibition by 10 μM SPA70
T20 construct: purchased DiscoverX (Ambit Biosciences) KINOMEscan
T20 sequence (Q96GD4 whole entry): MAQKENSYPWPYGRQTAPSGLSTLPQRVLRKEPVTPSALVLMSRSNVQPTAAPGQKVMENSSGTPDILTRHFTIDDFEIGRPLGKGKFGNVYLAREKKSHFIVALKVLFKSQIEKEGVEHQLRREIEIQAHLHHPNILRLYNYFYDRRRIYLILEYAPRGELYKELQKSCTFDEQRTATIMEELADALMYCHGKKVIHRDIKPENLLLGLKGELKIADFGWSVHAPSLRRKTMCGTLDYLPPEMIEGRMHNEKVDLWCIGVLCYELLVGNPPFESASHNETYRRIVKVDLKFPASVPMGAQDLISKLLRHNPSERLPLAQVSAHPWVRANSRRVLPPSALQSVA
Method in brief: as §1

[21] = target: T21, PKN2 (Homo sapiens, UniProt Q16513); conditions: read-out: %Inhibition by 10 μM SPA70
T21 construct: purchased DiscoverX (Ambit Biosciences) KINOMEscan
Method in brief: as §1

[22] = target: T22, PYK2 (Homo sapiens, UniProt Q14289); conditions: read-out: %Inhibition by 10 μM SPA70
T22 construct: purchased DiscoverX (Ambit Biosciences) KINOMEscan
Method in brief: as §1

[23] = target: T23, FLT4 (Homo sapiens, UniProt P35916); conditions: read-out: %Inhibition by 10 μM SPA70
T23 construct: purchased DiscoverX (Ambit Biosciences) KINOMEscan
T23 sequence (P35916 25-1363): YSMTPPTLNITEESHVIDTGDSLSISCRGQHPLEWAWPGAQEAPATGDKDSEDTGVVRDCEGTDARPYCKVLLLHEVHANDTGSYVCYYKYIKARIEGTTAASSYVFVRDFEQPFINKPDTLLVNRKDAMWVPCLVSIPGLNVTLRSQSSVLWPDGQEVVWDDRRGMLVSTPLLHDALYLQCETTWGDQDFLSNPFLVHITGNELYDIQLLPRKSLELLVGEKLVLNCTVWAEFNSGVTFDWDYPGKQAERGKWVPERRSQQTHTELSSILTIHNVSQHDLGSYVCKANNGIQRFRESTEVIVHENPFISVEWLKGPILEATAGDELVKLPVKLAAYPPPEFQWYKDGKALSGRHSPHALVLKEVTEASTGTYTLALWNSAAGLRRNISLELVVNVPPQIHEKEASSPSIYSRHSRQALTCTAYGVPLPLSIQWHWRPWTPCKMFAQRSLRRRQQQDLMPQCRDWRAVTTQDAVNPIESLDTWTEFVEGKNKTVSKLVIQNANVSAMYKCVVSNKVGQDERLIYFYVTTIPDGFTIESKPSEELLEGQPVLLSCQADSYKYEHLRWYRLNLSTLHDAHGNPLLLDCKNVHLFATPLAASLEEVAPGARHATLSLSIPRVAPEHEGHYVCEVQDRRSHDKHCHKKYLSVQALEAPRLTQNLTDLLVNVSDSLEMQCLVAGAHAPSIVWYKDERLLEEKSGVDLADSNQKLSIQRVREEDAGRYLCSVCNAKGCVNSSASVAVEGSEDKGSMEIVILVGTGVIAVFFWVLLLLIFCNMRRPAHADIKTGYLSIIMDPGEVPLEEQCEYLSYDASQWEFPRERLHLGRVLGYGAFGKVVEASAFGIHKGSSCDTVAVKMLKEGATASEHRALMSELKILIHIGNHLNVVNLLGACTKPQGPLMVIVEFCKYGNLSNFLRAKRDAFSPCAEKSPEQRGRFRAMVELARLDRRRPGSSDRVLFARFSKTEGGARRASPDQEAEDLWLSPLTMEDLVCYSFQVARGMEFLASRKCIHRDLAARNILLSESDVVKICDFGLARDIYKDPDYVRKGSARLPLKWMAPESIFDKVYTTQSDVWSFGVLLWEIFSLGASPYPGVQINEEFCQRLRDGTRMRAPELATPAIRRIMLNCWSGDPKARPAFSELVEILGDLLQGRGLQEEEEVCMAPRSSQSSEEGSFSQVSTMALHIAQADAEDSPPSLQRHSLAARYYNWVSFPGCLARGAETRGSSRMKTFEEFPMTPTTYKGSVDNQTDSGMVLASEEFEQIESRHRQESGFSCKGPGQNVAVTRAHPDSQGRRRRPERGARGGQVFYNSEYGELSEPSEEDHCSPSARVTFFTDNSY
Method in brief: as §1

[24] = target: T24, DAPK3 (Homo sapiens, UniProt O43293); conditions: read-out: %Inhibition by 10 μM SPA70
T24 construct: purchased DiscoverX (Ambit Biosciences) KINOMEscan
Method in brief: as §1

[25] = target: T25, PKAC-alpha (Homo sapiens, UniProt P17612)
T25 construct: purchased DiscoverX (Ambit Biosciences) KINOMEscan
Method in brief: as §1

[26] = target: T26, PCTK2 (Homo sapiens, UniProt Q00537); conditions: read-out: %Inhibition by 10 μM SPA70
T26 construct: purchased DiscoverX (Ambit Biosciences) KINOMEscan
Method in brief: as §1

[27] = target: T27, LZK (Homo sapiens, UniProt O43283)
T27 construct: purchased DiscoverX (Ambit Biosciences) KINOMEscan
Method in brief: as §1

[28] = target: T28, CDC2L5 (Homo sapiens, UniProt Q14004)
T28 construct: purchased DiscoverX (Ambit Biosciences) KINOMEscan
Method in brief: as §1

[29] = target: T29, CASK (Homo sapiens, UniProt O14936); conditions: read-out: %Inhibition by 10 μM SPA70
T29 construct: purchased DiscoverX (Ambit Biosciences) KINOMEscan
Method in brief: as §1

[30] = target: T30, CSNK1A1 (Homo sapiens, UniProt P48729); conditions: read-out: %Inhibition by 10 μM SPA70
T30 construct: purchased DiscoverX (Ambit Biosciences) KINOMEscan
T30 sequence (P48729 whole entry): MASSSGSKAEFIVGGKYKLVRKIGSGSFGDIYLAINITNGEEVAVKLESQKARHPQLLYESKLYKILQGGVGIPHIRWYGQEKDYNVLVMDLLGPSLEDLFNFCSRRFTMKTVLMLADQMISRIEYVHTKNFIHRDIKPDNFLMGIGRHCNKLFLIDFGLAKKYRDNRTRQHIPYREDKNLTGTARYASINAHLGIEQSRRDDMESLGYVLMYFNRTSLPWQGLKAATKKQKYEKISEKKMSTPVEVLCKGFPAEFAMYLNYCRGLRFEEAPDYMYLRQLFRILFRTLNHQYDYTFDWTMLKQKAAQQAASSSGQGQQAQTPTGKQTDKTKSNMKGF
Method in brief: as §1

[31] = target: T31, PIM3 (Homo sapiens, UniProt Q86V86); conditions: read-out: %Inhibition by 10 μM SPA70
T31 construct: purchased DiscoverX (Ambit Biosciences) KINOMEscan
Method in brief: as §1

[32] = target: T32, RSK3(Kin.Dom.1-N-terminal) (Homo sapiens, UniProt Q15349); conditions: read-out: %Inhibition by 10 μM SPA70
T32 construct: RSK3(Kin.Dom.1-N-terminal); purchased DiscoverX (Ambit Biosciences) KINOMEscan
T32 sequence (Q15349 1-388 limits assumed): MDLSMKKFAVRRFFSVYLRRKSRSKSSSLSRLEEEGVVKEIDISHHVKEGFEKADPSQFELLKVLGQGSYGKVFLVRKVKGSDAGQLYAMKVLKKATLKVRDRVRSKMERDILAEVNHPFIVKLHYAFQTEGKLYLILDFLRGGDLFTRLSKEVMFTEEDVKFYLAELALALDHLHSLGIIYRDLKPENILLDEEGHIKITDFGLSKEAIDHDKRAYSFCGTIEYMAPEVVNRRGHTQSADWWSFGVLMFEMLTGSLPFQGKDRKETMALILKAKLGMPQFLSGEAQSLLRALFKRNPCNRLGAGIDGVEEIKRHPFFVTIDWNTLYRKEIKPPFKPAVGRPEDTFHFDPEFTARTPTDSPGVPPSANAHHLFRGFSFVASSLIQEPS
Method in brief: as §1

[33] = target: T33, FER (Homo sapiens, UniProt P16591); conditions: read-out: %Inhibition by 10 μM SPA70
T33 construct: purchased DiscoverX (Ambit Biosciences) KINOMEscan
Method in brief: as §1

[34] = target: T34, S6K1 (Homo sapiens, UniProt P23443); conditions: read-out: %Inhibition by 10 μM SPA70
T34 construct: purchased DiscoverX (Ambit Biosciences) KINOMEscan
Method in brief: as §1

[35] = target: T35, CIT (Homo sapiens, UniProt O14578)
T35 construct: purchased DiscoverX (Ambit Biosciences) KINOMEscan
Method in brief: as §1

[36] = target: T36, ERK2 (Homo sapiens, UniProt P28482); conditions: read-out: %Inhibition by 10 μM SPA70
T36 construct: purchased DiscoverX (Ambit Biosciences) KINOMEscan
Method in brief: as §1

[37] = target: T37, RSK2(Kin.Dom.1-N-terminal) (Homo sapiens, UniProt P51812); conditions: read-out: %Inhibition by 10 μM SPA70
T37 construct: RSK2(Kin.Dom.1-N-terminal); purchased DiscoverX (Ambit Biosciences) KINOMEscan
T37 sequence (P51812 1-397 limits assumed): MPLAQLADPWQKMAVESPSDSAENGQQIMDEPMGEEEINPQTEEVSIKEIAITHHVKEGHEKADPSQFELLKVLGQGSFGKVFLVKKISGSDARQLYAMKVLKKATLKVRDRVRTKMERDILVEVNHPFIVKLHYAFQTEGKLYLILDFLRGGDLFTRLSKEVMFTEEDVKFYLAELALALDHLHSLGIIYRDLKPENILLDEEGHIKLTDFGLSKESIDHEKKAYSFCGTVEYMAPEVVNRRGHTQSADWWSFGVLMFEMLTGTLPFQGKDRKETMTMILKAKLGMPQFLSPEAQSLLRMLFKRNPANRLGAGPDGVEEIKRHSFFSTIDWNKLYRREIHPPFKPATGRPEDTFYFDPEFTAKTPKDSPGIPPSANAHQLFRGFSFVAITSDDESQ
Method in brief: as §1

[38] = target: T38, TLK2 (Homo sapiens, UniProt Q86UE8); conditions: read-out: %Inhibition by 10 μM SPA70
T38 construct: purchased DiscoverX (Ambit Biosciences) KINOMEscan
T38 sequence (Q86UE8 whole entry): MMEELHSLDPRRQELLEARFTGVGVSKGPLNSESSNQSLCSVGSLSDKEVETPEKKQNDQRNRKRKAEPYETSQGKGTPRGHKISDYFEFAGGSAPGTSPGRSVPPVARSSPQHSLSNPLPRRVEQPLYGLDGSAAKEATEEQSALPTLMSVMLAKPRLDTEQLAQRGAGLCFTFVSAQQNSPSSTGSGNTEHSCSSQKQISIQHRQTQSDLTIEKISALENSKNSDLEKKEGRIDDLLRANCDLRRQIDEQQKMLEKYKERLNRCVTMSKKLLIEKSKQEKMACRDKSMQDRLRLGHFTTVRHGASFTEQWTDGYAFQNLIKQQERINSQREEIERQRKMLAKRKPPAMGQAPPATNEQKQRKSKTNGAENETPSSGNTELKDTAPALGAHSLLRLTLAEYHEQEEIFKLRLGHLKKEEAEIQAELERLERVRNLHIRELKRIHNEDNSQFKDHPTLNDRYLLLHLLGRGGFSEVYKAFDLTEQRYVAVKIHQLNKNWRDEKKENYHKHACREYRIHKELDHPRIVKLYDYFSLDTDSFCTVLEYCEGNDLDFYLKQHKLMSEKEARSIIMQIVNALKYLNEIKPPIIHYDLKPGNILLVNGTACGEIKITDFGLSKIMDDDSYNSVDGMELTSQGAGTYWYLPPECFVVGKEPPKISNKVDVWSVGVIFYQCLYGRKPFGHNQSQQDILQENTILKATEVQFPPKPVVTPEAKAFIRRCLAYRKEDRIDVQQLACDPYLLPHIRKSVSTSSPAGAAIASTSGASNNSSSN
Method in brief: as §1

[39] = target: T39, CSK (Homo sapiens, UniProt P41240)
T39 construct: purchased DiscoverX (Ambit Biosciences) KINOMEscan
Method in brief: as §1

[40] = target: T40, MAPKAPK5 (Homo sapiens, UniProt Q8IW41); conditions: read-out: %Inhibition by 10 μM SPA70
T40 construct: purchased DiscoverX (Ambit Biosciences) KINOMEscan
Method in brief: as §1

[41] = read-out: %Inhibition by 10 μM SPA70

SMILES: COc1ccc(OC)c(-n2nnc(S(=O)(=O)c3ccc(C(C)(C)C)cc3)c2C)c1 [SPA70]
- inhibition at 10 µM [1]: 46%
- inhibition at 10 µM [2]: 0%
- %Inhibition by 10 μM SPA70 [3]: not inhibited
- inhibition at 10 µM [3, 41]: 0%
- inhibition at 10 µM [4]: 13%
- inhibition at 10 µM [5]: 0%
- inhibition at 10 µM [6]: 0%
- inhibition at 10 µM [7]: 0%
- inhibition at 10 µM [8]: 0%
- inhibition at 10 µM [9]: 20%
- inhibition at 10 µM [10]: 32%
- inhibition at 10 µM [11]: 0%
- inhibition at 10 µM [12]: 23%
- inhibition at 10 µM [13]: 0%
- inhibition at 10 µM [14]: 0%
- inhibition at 10 µM [15]: 11%
- %Inhibition by 10 μM SPA70 [16]: 0%
- inhibition at 10 µM [17]: 5%
- inhibition at 10 µM [18]: 0%
- inhibition at 10 µM [19]: 0%
- inhibition at 10 µM [20]: 8%
- inhibition at 10 µM [21]: 0%
- inhibition at 10 µM [22]: 2%
- inhibition at 10 µM [23]: 2%
- inhibition at 10 µM [24]: 0%
- %Inhibition by 10 μM SPA70 [25]: not inhibited
- inhibition at 10 µM [25, 41]: 0%
- inhibition at 10 µM [26]: 0%
- %Inhibition by 10 μM SPA70 [27]: 0%
- %Inhibition by 10 μM SPA70 [28]: 0%
- inhibition at 10 µM [29]: 9%
- inhibition at 10 µM [30]: 1%
- inhibition at 10 µM [31]: 0%
- inhibition at 10 µM [32]: 0%
- inhibition at 10 µM [33]: 19%
- inhibition at 10 µM [34]: 13%
- %Inhibition by 10 μM SPA70 [35]: 12%
- inhibition at 10 µM [36]: 0%
- inhibition at 10 µM [37]: 11%
- inhibition at 10 µM [38]: 0%
- %Inhibition by 10 μM SPA70 [39]: 9%
- inhibition at 10 µM [40]: 12%
